Measurements reported in patent US20200377496A1, “INDOLE AND BENZIMIDAZOLE DERIVATIVES AS DUAL 5-HT2A and 5-HT6 RECEPTOR ANTAGONISTS” (ADAMED PHARMA, S.A., priority 2018, published 2020).
Read-outs that look alike come from different tables or passages of the source.

How the values were obtained:
human GPCR 5-HT2A = human GPCR 5-HT2A (Homo sapiens, UniProt P28223); experiment: Cellular aequorin-based functional assay, 5-HT2A; format: cell-based; conditions: for 5-HT2A AGO EC50 [nM]: agonist mode, CHO-K1 aequorin cells
Chain of human GPCR 5-HT2A (P28223 whole entry): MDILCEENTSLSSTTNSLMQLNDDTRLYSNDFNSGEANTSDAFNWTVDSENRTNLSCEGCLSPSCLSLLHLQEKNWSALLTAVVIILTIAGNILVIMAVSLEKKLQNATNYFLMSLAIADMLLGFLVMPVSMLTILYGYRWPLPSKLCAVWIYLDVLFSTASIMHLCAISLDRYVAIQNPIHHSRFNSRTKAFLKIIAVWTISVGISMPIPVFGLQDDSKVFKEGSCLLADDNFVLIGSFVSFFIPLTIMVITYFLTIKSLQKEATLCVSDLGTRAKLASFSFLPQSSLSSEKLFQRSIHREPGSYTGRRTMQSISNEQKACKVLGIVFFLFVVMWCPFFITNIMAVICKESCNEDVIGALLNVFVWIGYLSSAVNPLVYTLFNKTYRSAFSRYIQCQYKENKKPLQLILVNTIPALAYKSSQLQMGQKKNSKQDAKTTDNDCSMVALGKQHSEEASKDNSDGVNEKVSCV
Procedure: (§1) Preparation of Solutions of Test and Reference Compounds.
(§2) 1 mM stock solutions of the tested compounds were prepared in DMSO. Serial dilutions were prepared in 96-well microplate in assay buffers using automated pipetting system epMotion 5070 (Eppendorf). Two independent experiments in duplicates were performed and 6 to 10 concentrations were tested.
(§3) 5-HT2A and 5-HT6 Functional Activity Assays.
(§4) Cellular aequorin-based functional assays were performed with γ-irradiated recombinant CHO-K1 cells expressing mitochondrially-targeted Aequorin, human GPCR (5-HT2A or 5-HT6) and the promiscuous G protein α16 (PerkinElemer). Assays were performed according to the standard protocol provided by the manufacturer. After thawing, cells were transferred to assay buffer (DMEM/HAM's F12 with 0.1% protease-free BSA) and centrifuged. Cell pellet was resuspended in assay buffer and coelenterazine h was added at final concentrations of 5 μM. Cell suspension was incubated at 21° C., protected from light with constant agitation, for 4 hours and then diluted with assay buffer to a concentration of 250,000 cells/ml. After 1 hour incubation 50 yl cell suspension was dispensed using automatic injectors built in radiometric and luminescence plate counter MicroBeta2 LumiJET (PerkinElmer, USA) into white opaque 96-well microplate preloaded with tested compounds. Immediate light emission generated following calcium mobilization was recorded for 30-60 seconds. In antagonist mode, after 15-30 minutes incubation reference agonist was added to the above assay mix and light emission was recorded again. Final concentration of reference agonist was equal EC80: serotonin 40 nM for 5-HT6 receptor and α-methylserotonin 30 nM for 5-HT2A receptor. The assays were performed in the agonist mode (5-HT6 AGO and 5-HT2A AGO) as well as antagonist mode (5-HT6 ANT and 5-HT2A ANT).
(§5) IC50 and EC50 were determined by non-linear regression analysis using GraphPad Prism 6.0 software. The log IC50 was used to obtain the Kb by applying the Cheng-Prusoff approximation.

5-HT6 receptors [1] = target: T1, 5-HT6 receptors (Homo sapiens, UniProt P50406); experiment: 5-HT6 receptor binding assay ([3H]-LSD radioligand); conditions: membranes from CHO-K1 cells with human 5-HT6 receptor, [3H]-LSD 1 nM
T1 sequence (P50406 whole entry): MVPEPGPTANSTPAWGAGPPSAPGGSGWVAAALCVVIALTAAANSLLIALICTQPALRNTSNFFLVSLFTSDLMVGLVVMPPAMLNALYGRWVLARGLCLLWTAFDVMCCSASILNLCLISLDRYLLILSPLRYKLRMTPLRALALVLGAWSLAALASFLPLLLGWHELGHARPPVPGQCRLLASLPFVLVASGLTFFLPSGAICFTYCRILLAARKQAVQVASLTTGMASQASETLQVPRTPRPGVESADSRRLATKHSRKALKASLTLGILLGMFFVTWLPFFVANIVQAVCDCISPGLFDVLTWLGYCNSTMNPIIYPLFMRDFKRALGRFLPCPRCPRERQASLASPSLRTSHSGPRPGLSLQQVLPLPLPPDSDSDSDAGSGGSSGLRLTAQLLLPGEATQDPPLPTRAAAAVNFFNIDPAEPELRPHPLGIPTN
Procedure: as §1
(§6) 1 mM stock solutions of tested compounds were prepared in DMSO. Serial dilutions of compounds were prepared in 96-well microplate in assay buffers using automated pipetting system epMotion 5070 (Eppendorf). Each compound was tested in 10 concentrations from 1.0E-6 to 1.0E-11 M (final concentration).
5-HT6 Receptor Binding Assay.
Radioligand binding was performed using membranes from CHO-K1 cells stably transfected with the human 5-HT6 receptor (PerkinElmer). All assays were carried out in duplicates. 50 μl working solution of the tested compounds, 50 μl [3H]-LSD (final concentration 1 nM) and 150 μl diluted membranes (8 μg protein per well) prepared in assay buffer (50 mM Tris, pH 7.4, 10 mM MgCl2, 0.1 mM EDTA) were transferred to polypropylene 96 well microplate using 96-wells pipetting station Rainin Liquidator (MettlerToledo). Methiothepin (10 μM) was used to define nonspecific binding. Microplate was covered with a sealing tape, mixed and incubated for 60 minutes at 37° C. The reaction was terminated by rapid filtration through GF/A filter mate presoaked with 0.5% polyethyleneimine for 30 minutes. Ten rapid washes with 200 μl 50 mM Tris buffer (4° C., pH 7.4) were performed using automated harvester system Harvester-96 MACH III FM (Tomtec). The filter mates were dried at 37° C. in forced air fan incubator and then solid scintilator MeltiLex was melted on filter mates at 90° C. for 5 minutes. Radioactivity was counted in MicroBeta2 scintillation counter (PerkinElmer). Data were fitted to a one-site curve-fitting equation with Prism 6 (GraphPad Software) and Ki values were estimated from the Cheng-Prusoff equation.

human GPCR 5-HT6 = human GPCR 5-HT6 (Homo sapiens, UniProt P50406); experiment: Cellular aequorin-based functional assay, 5-HT6; format: cell-based; conditions: for 5-HT6 AGO EC50 [nM]: agonist mode, CHO-K1 aequorin cells; for Kb: antagonist mode, reference agonist serotonin 40 nM (EC80), read-out: 5-HT6 ANT Kb
Chain of human GPCR 5-HT6 (P50406 whole entry): as above
Procedure: as §1, §2, §3, §4, §5

human 5-HT2A receptor = human 5-HT2A receptor (Homo sapiens, UniProt P28223); experiment: 5-HT2A receptor binding assay ([3H]-ketanserin radioligand)
Chain of human 5-HT2A receptor (P28223 whole entry): as the sequence (P28223 whole entry) above
Procedure: as §1, §6
5-HT2A Receptor Binding Assay.
Radioligand binding was performed using membranes from CHO K1 cells stably transfected with the human 5-HT2A receptor (PerkinElmer). All assays were carried out in duplicates. 50 μl working solution of the tested compounds, 50 μl [3H]-ketanserin (final concentration 1 nM) and 150 μl diluted membranes (7 μg protein per well) prepared in assay buffer (50 mM Tris, pH 7.4, 4 mM CaCl2, 0.1% ascorbic acid) were transferred to polypropylene 96-well microplate using 96-wells pipetting station Rainin Liquidator (MettlerToledo). Mianserin (10 μM) was used to define nonspecific binding. Microplate was covered with a sealing tape, mixed and incubated for 60 minutes at 27° C. The reaction was terminated by rapid filtration through GF/B filter mate presoaked with 0.5% polyethyleneimine for 30 minutes. Ten rapid washes with 200 μl 50 mM Tris buffer (4° C., pH 7.4) were performed using automated harvester system Harvester-96 MACH III FM (Tomtec). The filter mates were dried at 37° C. in forced air fan incubator and then solid scintilator MeltiLex was melted on filter mates at 90° C. for 5 minutes. Radioactivity was counted in MicroBeta2 scintillation counter (PerkinElmer). Data were fitted to a one-site curve-fitting equation with Prism 6 (GraphPad Software) and Ki values were estimated from the Cheng-Prusoff equation.

5-HT6 receptors [2] = target: T1, 5-HT6 receptors; conditions: cited from earlier work
[3] = antagonist mode, reference agonist α-methylserotonin 30 nM (EC80), read-out: 5-HT2A ANT Kb
[4] = membranes from CHO K1 cells with human 5-HT2A receptor, [3H]-ketanserin 1 nM, read-out: 5-HT2A Ki

Q: For Cc1ccc(Cn2c(C(F)(F)F)cc3c(N4CCNCC4)cccc32)s1 [Compound 29, 1-[(5-methylthiophen-2-yl)methyl]-4-(piperazin-1-yl)-2-(trifluoromethyl)-1H-indole], which Kb (human GPCR 5-HT2A) is on record?
A: 9.8 nM

Q: What about the “5-HT2A AGO EC50 [nM]” value (human GPCR 5-HT2A) of the same compound?
A: N.C.

Q: And the Ki (5-HT6 receptors [1])?
A: 0.11 nM

Q: What about the “5-HT6 AGO EC50 [nM]” value (human GPCR 5-HT6) of the same compound?
A: N.C.

Q: What about the Kb (human GPCR 5-HT6) of the same compound?
A: 0.051 nM

Q: What about the Ki (human 5-HT2A receptor) of the same compound?
A: 0.37 nM

Q: With FC(F)(F)c1cc2c(N3CCNCC3)cccc2n1Cc1cccs1 [Compound 30, 4-(piperazin-1-yl)-1-(thiophen-2-ylmethyl)-2-(trifluoromethyl)-1H-indole] as the compound, how does the Kb (human GPCR 5-HT2A) read?
A: 5.5 nM

Q: And the “5-HT2A AGO EC50 [nM]” value (human GPCR 5-HT2A)?
A: N.C.

Q: What about the Ki (5-HT6 receptors [1]) of the same compound?
A: 0.071 nM

Q: And the “5-HT6 AGO EC50 [nM]” value (human GPCR 5-HT6)?
A: N.C.

Q: What about the Kb (human GPCR 5-HT6) of the same compound?
A: 0.65 nM

Q: What about the Ki (human 5-HT2A receptor) of the same compound?
A: 0.33 nM

Q: What does the source list for FC(F)(F)c1cc2c(N3CCNCC3)cccc2n1Cc1ccsc1 [Compound 31, 4-(piperazin-1-yl)-1-(thiophen-3-ylmethyl)-2-(trifluoromethyl)-1H-indole]?
A: Kb (human GPCR 5-HT2A): 16 nM; 5-HT2A AGO EC50 [nM] (human GPCR 5-HT2A): N.C.; Ki (5-HT6 receptors [1]): 0.11 nM; 5-HT6 AGO EC50 [nM] (human GPCR 5-HT6): N.C.; Kb (human GPCR 5-HT6): 0.2 nM; Ki (human 5-HT2A receptor): 1.5 nM

Q: With CN1CCN(c2cccc3c2cc(C(F)(F)F)n3Cc2ccsc2)CC1 [Compound 32, 4-(4-methylpiperazin-1-yl)-1-(thiophen-3-ylmethyl)-2-(trifluoromethyl)-1H-indole] as the compound, how does the “5-HT2A AGO EC50 [nM]” value (human GPCR 5-HT2A) read?
A: N.C.

Q: What about the Kb (human GPCR 5-HT2A; [3]) of the same compound?
A: 11 nM

Q: And the Ki (5-HT6 receptors [1])?
A: 0.061 nM

Q: And the “5-HT6 AGO EC50 [nM]” value (human GPCR 5-HT6)?
A: N.C.

Q: And the Kb (human GPCR 5-HT6)?
A: 0.37 nM

Q: And the Ki (human 5-HT2A receptor; [4])?
A: 2.3 nM

Q: For CN1CCN(c2cccc3c2cc(C(F)(F)F)n3Cc2cccs2)CC1 [Compound 33, 4-(4-methylpiperazin-1-yl)-1-(thiophen-2-ylmethyl)-2-(trifluoromethyl)-1H-indole], which “5-HT2A AGO EC50 [nM]” value (human GPCR 5-HT2A) is on record?
A: N.C.

Q: And the Kb (human GPCR 5-HT2A; [3])?
A: 9.7 nM

Q: And the Ki (5-HT6 receptors [1])?
A: 0.069 nM

Q: And the “5-HT6 AGO EC50 [nM]” value (human GPCR 5-HT6)?
A: N.C.

Q: And the Kb (human GPCR 5-HT6)?
A: 0.28 nM

Q: And the Ki (human 5-HT2A receptor; [4])?
A: 0.17 nM

Q: Which “affinity for the 5-HT6 receptors” value (5-HT6 receptors [2]) does the source give for CC(C)COc1ccc(CNC(=O)N(Cc2ccc(F)cc2)C2CCN(C)CC2)cc1 [pimavanserin] here?
A: no affinity
